Laboratory results as given in patent publication US20110105397A1, “METHOD FOR TREATING HEART FAILURE WITH STRESSCOPIN-LIKE PEPTIDES” (priority 2009, published 2011).

Tested on: male dogs
Experiment: GLP cardiovascular safety study in male dogs
Type: in vivo, dog
Procedure: The NOAEL of 33.3 ng/kg/min was determined in a GLP cardiovascular safety study in male dogs, which is considered to be the most relevant and sensitive species for cardiovascular drugs.
A NOAEL of 33.3 ng/kg/min was determined in a GLP cardiovascular safety study in male dogs, which is considered to be the most relevant and sensitive species for cardiovascular drugs. […] Based on these values a starting dose of 0.1 ng/kg/min was selected.

For “H-TKFTLSLDVPTNIMNLLFNIAKAKNLRAQAAANAHLMAQI-NH2 [SEQ ID NO: 1, TKFTLSLDVPTNIMNLLFNIAKAKNLRAQAAANAHLMAQI-NH2]”, the “upper limit of plasma concentration” value (dog, in vivo) was 12.0 ng/mL, the safety margin (expected Cpss at 0.1 ng/kg/min versus upper limit in dogs) was 1,390 fold and the NOAEL (male dogs) was 33.3 ng/kg/min.
